We go through two molecules from patent EP0158513A2, “Antiviral compounds” (THE WELLCOME FOUNDATION LIMITED, priority 1984, dated 1985).

SMILES strings stand for the structures. In brackets after ≈: the same amount, converted by molar mass.

A short description of one data set: physchem. Type of data set: physicochemical. The settings on record: 25 °C, water. The source says: In UK Patent Specification 2130204 we describe certain purine derivatives which are characterised by the presence of a hydrogen atom in the 6- position of the purine nucleus, and which can be readily converted in vivo by the action of enzymes of the molybdo-flavo-protein type (especially xanthine oxidase/dehydrogenase or aldehyde oxidase) into the corresponding 6-hydroxy purine derivatives having antiviral activity. […] This improved water-solubility enables 6-deoxyacyclovir to be used in a greater variety of aqueous pharmaceutical formulations which require some solubilisation of the drug.

Data set [1] concerns the target T1, xanthine oxidase from bovine milk (Bos taurus, UniProt P80457).
T1 construct: xanthine oxidase from bovine milk; from tissue; host or cells: bovine milk
The data set can be described thus: oxidation by xanthine oxidase (enzyme studies). The conditions noted are these: compared with the 9-unsubstituted purine (2-aminopurine). Type of data set: biochemical. The source says:
The discovery that the 6-hydrogen purines of formula (IA) referred to above can be readily converted into their corresponding 6-hydroxy analogues was surprising since in previous studies with xanthine oxidase from bovine milk (H.Lettre et al (1967) Biochem.Pharmacol., 16, 1747-1755; T.A. Krenitsky et al (1972) Arch. Biophys., 150, 585-599), it was shown that 9- substitution obliterates or greatly diminishes the rate at which a variety of purines are oxidised.

T1 sequence (P80457 whole entry): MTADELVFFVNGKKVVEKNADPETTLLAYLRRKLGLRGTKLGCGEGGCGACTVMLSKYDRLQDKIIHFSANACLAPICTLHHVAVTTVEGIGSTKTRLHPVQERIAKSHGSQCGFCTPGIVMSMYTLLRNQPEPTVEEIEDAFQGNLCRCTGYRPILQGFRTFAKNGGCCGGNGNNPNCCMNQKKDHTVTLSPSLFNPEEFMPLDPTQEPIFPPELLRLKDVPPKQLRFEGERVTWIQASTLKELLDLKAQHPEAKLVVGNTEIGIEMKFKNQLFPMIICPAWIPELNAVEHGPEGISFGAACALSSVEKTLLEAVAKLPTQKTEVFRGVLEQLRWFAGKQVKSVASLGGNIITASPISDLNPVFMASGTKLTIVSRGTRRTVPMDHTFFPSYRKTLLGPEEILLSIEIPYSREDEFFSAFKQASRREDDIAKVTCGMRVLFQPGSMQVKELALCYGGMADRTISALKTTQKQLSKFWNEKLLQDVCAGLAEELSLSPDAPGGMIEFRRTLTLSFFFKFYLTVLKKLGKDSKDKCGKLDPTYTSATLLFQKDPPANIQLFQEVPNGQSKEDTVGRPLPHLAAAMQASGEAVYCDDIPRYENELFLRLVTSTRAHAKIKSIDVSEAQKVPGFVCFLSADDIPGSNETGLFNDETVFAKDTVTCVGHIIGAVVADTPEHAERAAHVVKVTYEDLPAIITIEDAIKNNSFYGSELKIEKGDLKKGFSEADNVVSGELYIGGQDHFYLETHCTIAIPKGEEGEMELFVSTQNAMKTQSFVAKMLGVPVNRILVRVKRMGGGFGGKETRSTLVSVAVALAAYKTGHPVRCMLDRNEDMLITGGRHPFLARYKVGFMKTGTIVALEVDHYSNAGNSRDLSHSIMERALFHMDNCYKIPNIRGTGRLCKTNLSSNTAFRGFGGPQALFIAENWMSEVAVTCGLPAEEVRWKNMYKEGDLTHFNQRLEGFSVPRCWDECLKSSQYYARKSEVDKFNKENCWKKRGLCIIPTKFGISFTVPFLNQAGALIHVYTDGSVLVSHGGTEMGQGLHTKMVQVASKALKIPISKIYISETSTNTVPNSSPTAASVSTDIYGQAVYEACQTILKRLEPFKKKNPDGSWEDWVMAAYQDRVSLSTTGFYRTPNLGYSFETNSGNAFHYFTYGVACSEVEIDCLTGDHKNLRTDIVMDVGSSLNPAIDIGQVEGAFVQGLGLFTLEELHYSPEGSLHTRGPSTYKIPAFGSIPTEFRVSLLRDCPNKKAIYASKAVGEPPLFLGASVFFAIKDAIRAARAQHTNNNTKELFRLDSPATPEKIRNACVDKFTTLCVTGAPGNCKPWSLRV

As a reminder, the solubility is the dissolved amount per volume that the medium holds. Higher therefore signals a readily soluble substance. In the data set “physchem”, `Nc1nc2c(ncn2COCCO)c(=O)[nH]1` [acyclovir, 9-(2-hydroxyethoxymethyl)guanine] yielded a solubility of 1.23 mg/mL (≈ 5.46 mM).

Molecule `Nc1ncc2ncn(COCCO)c2n1` [6-deoxyacyclovir, 2-amino-9-(2-hydroxyethoxymethyl)purine] returned a solubility in the data set “physchem” of 50 mg/mL (≈ 239 mM). Also, in data set [1], the “rate of oxidation by the enzyme” value is reported as “at a faster rate than the 9-unsubstituted purine”.
